A word on the solubility: it is the concentration that dissolves in the medium under given conditions. Higher therefore signals much dissolved substance.

Converted amounts (≈) assume the structure as drawn. Read-outs that look alike come from different tables or passages of the source.

Consider 19 compounds from patent US20080076666A1, “Formulation” (priority 2005, published 2008).

Data set [1] is described as follows: Water solubility of UV protection dyes (Table 1). As to conditions: for solubility: water.
Data set [2] is described as follows: Photo stabilisation study of COMPOUND (V) in gelatine microcapsules exposed to daylight (HPLC). It is filed as physicochemical. As to the method: The HPLC system was from Waters comprising of two 510 pumps, a 717 plus Autosampler, a System Interface Module, a Lambda-Max 480 detector and Millennium Chromatography Manager software. Chromatography was achieved on a Zorbax ODS 5 μm C18 analytical column of dimension 4.6×250 mm internal diameter maintained at 35° C. Mobile phases were unmodified water (Milli-Q grade) in reservoir A and unmodified acetonitrile in reservoir B. Linear gradient elution was used with 70 to 90% B over the first 10 minutes, then 100% B for 3 minutes and returning to 70% B over 4 minutes. Injection cycle time was 20 minutes with a flow rate of 2 ml/min. The samples were either dissolved in acetonitrile or diethyl ether and 10 μl volume injected on to the column which was maintained at 35° C. Prior to use, mobile phase were degassed under vacuum with sonication and continuously sparged with helium. The naphthoquinones were detected by measurement of UV absorbance at 269 nm.
A batch of gelatine microcapsules containing 300 mg of COMPOUND (V) in 15 ml of Exxsol® D100 was produced.
The capsule slurry was washed repeatedly with water to remove debris and filtered to obtain a wet cake. An aliquot of the wet cake (11.3 g) was made up to 50 ml and dyed brown with Chocolate Brown (500 mg, equivalent to 10 mg/ml solution). Aliquots (200 μl) of microcapsule slurry of brown and undyed capsules were applied to glass microscope slides in duplicate. The slurry from each batch was spread to form a monolayer of microcapsules on each slide. The slides were air dried in a dark at room temperature (≅21° C.) and exposed to daylight on a south-facing windowsill for various time periods. Two slides from each batch were analysed per time point post of exposure. Unexposed slides stored in the dark were used as time zero reference.
The contents of the capsules were extracted by rupturing the capsules, by rolling a glass rod on the slides, and washing both the rod and the slide with diethyl ether. The extracts were made up to 10 ml and assayed by HPLC.

With `CC1=NN(c2ccc(S(=O)(=O)[O-])cc2)C(=O)C1N=Nc1ccc(-c2ccc(N=Nc3ccc(OS(=O)(=O)c4ccc(C)cc4)cc3)c(S(=O)(=O)[O-])c2)cc1.[Na+].[Na+]` (centres unmarked) [Acid Orange 63], the “WATER SOLUBILITY” value in data set [1] was determined as 50 mg/mL.
On the same count and under the same terms, for `Cc1nn(-c2ccccc2)c([O-])c1N=Nc1cc([N+](=O)[O-])cc(S(=O)(=O)[O-])c1[O-].[Cr+3].[Na+].[OH-]` [Acid Orange 74] the value was 20 mg/mL.
In turn, `Cc1cc(N=Nc2ccc(C)c(N=Nc3cc(C)c(N)cc3N)c2)c(N)cc1N` [Bismark Brown R] showed a solubility in data set [1] of 70 mg/mL (≈ 180 mM).
As for `Nc1ccc(N=Nc2cccc(N=Nc3ccc(N)cc3N)c2)c(N)c1` [Bismark Brown Y], the “WATER SOLUBILITY” value in data set [1] came out at 50 mg/mL.
In turn, `Cc1c(C2(c3cc(Br)c(O)c(Br)c3C)OS(=O)(=O)c3ccccc32)cc(Br)c(O)c1Br` [Bromocresol Green] had a solubility in data set [1] of 6 mg/mL (≈ 8.6 mM).
With `CC(=O)OC1=C(C(C)CCC[Si](C)(C)C)C(=O)c2ccccc2C1=O` (centres unmarked) [COMPOUND (V)], the “amount of COMPOUND (V) in capsules, of the initial amount” value in data set [2] (Chocolate Brown dyed impervious gelatine microcapsules, 88 hours exposure to daylight (8 hours daylight over 11 days)) is roughly 80%; in data set [2] (undyed impervious gelatine microcapsules, 6 hours exposure to daylight), 60%; in data set [2] (undyed impervious gelatine microcapsules, 16 hours exposure to daylight), 23%; in data set [2] (undyed impervious gelatine microcapsules, 40 hours exposure to daylight (8 hours daylight over 5 days)) it was 6%. Also, the “period for which COMPOUND (V) was stabilised on exposure to daylight” value in data set [2] (within impervious gelatine microcapsules (Chocolate Brown dyed)) is reported as “in excess of eleven-days”.
With `O=S1(=O)OC(c2ccc(O)c(Cl)c2)(c2ccc(O)c(Cl)c2)c2ccccc21` [Chlorophenol Red], in data set [1], the “WATER SOLUBILITY” value came out at 60 mg/mL.
In turn, `Nc1c(/N=N/c2ccc(-c3ccc(/N=N/c4cc(S(=O)(=O)O)c5ccccc5c4N)cc3)cc2)cc(S(=O)(=O)O)c2ccccc12` [Congo Red] gave a solubility in data set [1] of 40 mg/mL (≈ 61.3 mM).
Regarding `O=S(=O)([O-])c1ccc2c(N=Nc3ccccc3)c(O)ccc2c1.[Na+]` [Crocein Orange G], the “WATER SOLUBILITY” value in data set [1] is 40 mg/mL.
The same measure, in the same setting: for `CC(=O)Nc1ccc2nc3c4ccccc4c(=N)cc-3oc2c1.Cl` [Darrow Red] the value was 1 mg/mL; for `CCN(CC)c1ccc(N=Nc2ccc(S(=O)(=O)[O-])cc2)cc1.[K+]` [Ethyl Orange], 100 mg/mL; for `CCN(CC)c1ccc(N=Nc2ccccc2C(=O)O)cc1` [Ethyl Red], 3 mg/mL.
Turning to `CN(C)c1ccc(/N=N/c2ccccc2C(=O)O)cc1` [Methyl Red], in data set [1], the concentration in solution (solubility) was 2 mg/mL (≈ 7.43 mM).
On to `Nc1cc(N)c(N=Nc2cccc3c(S(=O)(=O)O)cccc23)cc1N=Nc1cc([N+](=O)[O-])ccc1O.[Na]` [Mordant Brown 1], for which the “WATER SOLUBILITY” value in data set [1] amounted to 60 mg/mL.
On to `Cc1cc(N=Nc2cc([N+](=O)[O-])cc([N+](=O)[O-])c2O)c(N)cc1N` [Mordant Brown 4], for which the “WATER SOLUBILITY” value in data set [1] (hot water (remark)) came to 60 mg/mL.
Turning to `Nc1cc(N)c(S(=O)(=O)[O-])cc1N=Nc1cc([N+](=O)[O-])ccc1O.[Na+]` [Mordant Brown 33], in data set [1], the “WATER SOLUBILITY” value was 20 mg/mL.
On to `Nc1cc(N)c(N=Nc2cc([N+](=O)[O-])cc([N+](=O)[O-])c2O)cc1Cl` [Mordant Brown 48], for which, in data set [1], the “WATER SOLUBILITY” value was found to be 40 mg/mL.
On the same count and under the same terms, the value for `Cc1cc(O)ccc1C1(c2ccc(O)cc2C)OS(=O)(=O)c2ccccc21` [m-Cresol Purple] was 2 mg/mL.
Still for that read-out and setting: for Acid Orange 51 the value was 30 mg/mL.
